Tested on: 415267-285-R-J2-PDC complex spheroid viability
Test: Anticancer human tumor 415267-285-R-J2-PDC patient-derived breast carcinoma cell line growth inhibition [POLQ]
Conditions: for IC50: curve of first compound; for viability, T/C: stronger effect = lower value
Method in brief: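 PDC + HUVEC + MSC complex spheroids; POLQ inhibitors ± partner drugs; top conc. at/near clinical Cmax, else 10 microM (SN-38 1 microM), half-log dilutions; 37 degrees C, 5% CO2.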

[1] = second compound 0.0316 µM, first compound 0.0316 µM
[2] = second compound 0.0316 µM, first compound 0.1 µM
[3] = second compound 0.0316 µM, first compound 0.316 µM
[4] = second compound 0.0316 µM, first compound 1 µM
[5] = second compound 0.0316 µM, first compound 3.16 µM
[6] = second compound 0.0316 µM, first compound 10 µM
[7] = second compound 0.1 µM, first compound 0.0316 µM
[8] = second compound 0.1 µM, first compound 0.1 µM
[9] = second compound 0.1 µM, first compound 0.316 µM
[10] = second compound 0.1 µM, first compound 1 µM
[11] = second compound 0.1 µM, first compound 3.16 µM
[12] = second compound 0.1 µM, first compound 10 µM
[13] = second compound 0.316 µM, first compound 0.0316 µM
[14] = second compound 0.316 µM, first compound 0.1 µM
[15] = second compound 0.316 µM, first compound 0.316 µM
[16] = second compound 0.316 µM, first compound 1 µM
[17] = second compound 0.316 µM, first compound 3.16 µM
[18] = second compound 0.316 µM, first compound 10 µM
[19] = second compound 1 µM, first compound 0.0316 µM
[20] = second compound 1 µM, first compound 0.1 µM
[21] = second compound 1 µM, first compound 0.316 µM
[22] = second compound 1 µM, first compound 1 µM
[23] = second compound 1 µM, first compound 3.16 µM
[24] = second compound 1 µM, first compound 10 µM
[25] = second compound 3.16 µM, first compound 0.0316 µM
[26] = second compound 3.16 µM, first compound 0.1 µM
[27] = second compound 3.16 µM, first compound 0.316 µM
[28] = second compound 3.16 µM, first compound 1 µM
[29] = second compound 3.16 µM, first compound 3.16 µM
[30] = second compound 3.16 µM, first compound 10 µM
[31] = second compound 10 µM, first compound 0.0316 µM
[32] = second compound 10 µM, first compound 0.1 µM
[33] = second compound 10 µM, first compound 0.316 µM
[34] = second compound 10 µM, first compound 1 µM
[35] = second compound 10 µM, first compound 3.16 µM
[36] = second compound 10 µM, first compound 10 µM
[37] = second compound 0.0316 µM, first compound 0.00316 µM
[38] = second compound 0.0316 µM, first compound 0.01 µM
[39] = second compound 0.1 µM, first compound 0.00316 µM
[40] = second compound 0.1 µM, first compound 0.01 µM
[41] = second compound 0.316 µM, first compound 0.00316 µM
[42] = second compound 0.316 µM, first compound 0.01 µM
[43] = second compound 1 µM, first compound 0.00316 µM
[44] = second compound 1 µM, first compound 0.01 µM
[45] = second compound 3.16 µM, first compound 0.00316 µM
[46] = second compound 3.16 µM, first compound 0.01 µM
[47] = second compound 10 µM, first compound 0.00316 µM
[48] = second compound 10 µM, first compound 0.01 µM
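Further: spheroids exposed to compounds for one week before readout.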
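Wherever viability, T/C is given: luminescence used as stand-in measure of viable cells; 100% = DMSO vehicle control viability.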

CNCc1ccc(-c2[nH]c3cc(F)cc4c3c2CCNC4=O)cc1 + Cc1cccc(N(C)C(=O)C2C(O)CCN2c2nc(C)cc(C(F)(F)F)c2C#N)c1
IC50 (second compound 0.0316 µM): > 10000 nM | IC50 (second compound 0.1 µM): > 10000 nM | IC50 (second compound 0.316 µM): > 10000 nM | IC50 (second compound 1 µM): > 10000 nM | IC50 (second compound 3.16 µM): > 10000 nM | IC50 (second compound 10 µM): > 10000 nM | viability, T/C [1]: 94.8% | viability, T/C [2]: 97.2% | viability, T/C [3]: 106% | viability, T/C [4]: 116% | viability, T/C [5]: 94.5% | viability, T/C [6]: 110% | viability, T/C [7]: 99.8% | viability, T/C [8]: 86.7% | viability, T/C [9]: 102% | viability, T/C [10]: 96.3% | viability, T/C [11]: 105% | viability, T/C [12]: 105% | viability, T/C [13]: 97.5% | viability, T/C [14]: 103% | viability, T/C [15]: 101% | viability, T/C [16]: 101% | viability, T/C [17]: 102% | viability, T/C [18]: 99.6% | viability, T/C [19]: 97.8% | viability, T/C [20]: 96.3% | viability, T/C [21]: 93.7% | viability, T/C [22]: 100% | viability, T/C [23]: 104% | viability, T/C [24]: 84.3% | viability, T/C [25]: 94% | viability, T/C [26]: 100% | viability, T/C [27]: 100% | viability, T/C [28]: 98% | viability, T/C [29]: 97.8% | viability, T/C [30]: 94.6% | viability, T/C [31]: 98.4% | viability, T/C [32]: 90.2% | viability, T/C [33]: 96.3% | viability, T/C [34]: 95.1% | viability, T/C [35]: 96.9% | viability, T/C [36]: 88.9%

COc1ccc([C@@H](O)c2cc(-c3ncnc4cc(N5CCOCC5)ccc34)c(F)cc2Cl)nn1 + Cc1cccc(N(C)C(=O)C2C(O)CCN2c2nc(C)cc(C(F)(F)F)c2C#N)c1
IC50 (second compound 0.0316 µM): 7650 nM | IC50 (second compound 0.1 µM): 7730 nM | IC50 (second compound 0.316 µM): 7440 nM | IC50 (second compound 1 µM): 7620 nM | IC50 (second compound 3.16 µM): 7220 nM | IC50 (second compound 10 µM): 4740 nM | viability, T/C [1]: 89.5% | viability, T/C [2]: 103% | viability, T/C [3]: 98.9% | viability, T/C [4]: 102% | viability, T/C [5]: 74% | viability, T/C [6]: 42.7% | viability, T/C [7]: 93.9% | viability, T/C [8]: 102% | viability, T/C [9]: 110% | viability, T/C [10]: 91% | viability, T/C [11]: 82.1% | viability, T/C [12]: 40.9% | viability, T/C [13]: 99.3% | viability, T/C [14]: 102% | viability, T/C [15]: 98.5% | viability, T/C [16]: 100% | viability, T/C [17]: 81.3% | viability, T/C [18]: 39% | viability, T/C [19]: 99% | viability, T/C [20]: 91.3% | viability, T/C [21]: 92.7% | viability, T/C [22]: 93.2% | viability, T/C [23]: 69.4% | viability, T/C [24]: 44% | viability, T/C [25]: 93.1% | viability, T/C [26]: 100% | viability, T/C [27]: 98% | viability, T/C [28]: 88.9% | viability, T/C [29]: 75.5% | viability, T/C [30]: 39.9% | viability, T/C [31]: 101% | viability, T/C [32]: 99.3% | viability, T/C [33]: 94.5% | viability, T/C [34]: 86% | viability, T/C [35]: 59.7% | viability, T/C [36]: 31.6%

COc1cccc(OCCCN)c1-c1cc(Nc2cnc(C#N)cn2)n[nH]1 + Cc1cccc(N(C)C(=O)C2C(O)CCN2c2nc(C)cc(C(F)(F)F)c2C#N)c1
IC50 (second compound 0.0316 µM): 7.34 nM | IC50 (second compound 0.1 µM): 6.81 nM | IC50 (second compound 0.316 µM): 6.37 nM | IC50 (second compound 1 µM): 5.94 nM | IC50 (second compound 3.16 µM): 5.9 nM | IC50 (second compound 10 µM): 5.77 nM | viability, T/C [37]: 116% | viability, T/C [38]: 25.7% | viability, T/C [1]: 6.57% | viability, T/C [2]: 5.98% | viability, T/C [3]: 5.5% | viability, T/C [4]: 4.04% | viability, T/C [39]: 106% | viability, T/C [40]: 22.1% | viability, T/C [7]: 5.33% | viability, T/C [8]: 6.85% | viability, T/C [9]: 7.24% | viability, T/C [10]: 4.47% | viability, T/C [41]: 107% | viability, T/C [42]: 13% | viability, T/C [13]: 5.56% | viability, T/C [14]: 4.64% | viability, T/C [15]: 4.82% | viability, T/C [16]: 4.6% | viability, T/C [43]: 99.2% | viability, T/C [44]: 9.45% | viability, T/C [19]: 5.53% | viability, T/C [20]: 5.41% | viability, T/C [21]: 6.23% | viability, T/C [22]: 4.72% | viability, T/C [45]: 97.3% | viability, T/C [46]: 10.1% | viability, T/C [25]: 7.08% | viability, T/C [26]: 5.58% | viability, T/C [27]: 5.55% | viability, T/C [28]: 4.93% | viability, T/C [47]: 94.3% | viability, T/C [48]: 9.4% | viability, T/C [31]: 6.2% | viability, T/C [32]: 10.2% | viability, T/C [33]: 5.74% | viability, T/C [34]: 5.13%

Cn1ncnc1[C@H]1c2n[nH]c(=O)c3cc(F)cc(c23)N[C@@H]1c1ccc(F)cc1 + Cc1cccc(N(C)C(=O)C2C(O)CCN2c2nc(C)cc(C(F)(F)F)c2C#N)c1
IC50 (second compound 0.0316 µM): > 100 nM | IC50 (second compound 0.1 µM): > 100 nM | IC50 (second compound 0.316 µM): > 100 nM | IC50 (second compound 1 µM): > 100 nM | IC50 (second compound 3.16 µM): > 100 nM | IC50 (second compound 10 µM): > 100 nM | viability, T/C (second compound 0.0316 µM, first compound 0.000316 µM): 92.9% | viability, T/C (second compound 0.0316 µM, first compound 0.001 µM): 103% | viability, T/C [37]: 106% | viability, T/C [38]: 96.3% | viability, T/C [1]: 104% | viability, T/C [2]: 96.5% | viability, T/C (second compound 0.1 µM, first compound 0.000316 µM): 90.8% | viability, T/C (second compound 0.1 µM, first compound 0.001 µM): 93.9% | viability, T/C [39]: 114% | viability, T/C [40]: 109% | viability, T/C [7]: 99.9% | viability, T/C [8]: 97.9% | viability, T/C (second compound 0.316 µM, first compound 0.000316 µM): 97.1% | viability, T/C (second compound 0.316 µM, first compound 0.001 µM): 90.4% | viability, T/C [41]: 95.7% | viability, T/C [42]: 96.8% | viability, T/C [13]: 95.3% | viability, T/C [14]: 87.2% | viability, T/C (second compound 1 µM, first compound 0.000316 µM): 103% | viability, T/C (second compound 1 µM, first compound 0.001 µM): 95.6% | viability, T/C [43]: 93.9% | viability, T/C [44]: 101% | viability, T/C [19]: 98.3% | viability, T/C [20]: 101% | viability, T/C (second compound 3.16 µM, first compound 0.000316 µM): 92.9% | viability, T/C (second compound 3.16 µM, first compound 0.001 µM): 97.1% | viability, T/C [45]: 103% | viability, T/C [46]: 103% | viability, T/C [25]: 99.8% | viability, T/C [26]: 87.7% | viability, T/C (second compound 10 µM, first compound 0.000316 µM): 93.3% | viability, T/C (second compound 10 µM, first compound 0.001 µM): 97.9% | viability, T/C [47]: 110% | viability, T/C [48]: 93% | viability, T/C [31]: 91% | viability, T/C [32]: 90.5%

— PubChem BioAssay AID1963847 (Molecular Pharmacology Branch, DTP, NCI, 2024)
